Patent US10293014B2, “Immune stimulating composition comprising an extract of Aronia sp. in combination with selenium and/or zinc” (Ursapharm Arzneimittel GmbH, priority 2009, dated 2019)

System: macrophages of the mouse leukaemic monocyte macrophage cell line RAW 264.7
Test: Chemiluminescence assay of macrophage activity (lucigenine, zymosan)
Format: cell-based
Settings: selenium alone, RAW 264.7, FIG. 3
Description: Cells: Cell line (RAW 264.7, murine macrophages) was purchased from the America Type Culture Collection and cultivated as recommended.
Chemiluminescence Assay: Lucigenine (Sigma Chemicals Co.) was dissolved in Hank's Balanced Salt Solution (HBSS; Gibco Co.) at a concentration of 2×10^−3 M. This stock solution was further diluted in HBSS prior to use. 1 ml cells (5×10^6 cells/ml) were incubated with 0.1 ml solution of Aronia extract and Aronia extract together with sodium selenite (dosis kinetics for each component and the combinations as documented in the figures). All these constituents were kept in an incubator (37° C., 5% CO2) for 30 min, then centrifuged at 1200 U/min for 5 min and resuspended in minimal essential medium (MEM, Gibco Co.).
The reaction mixture consisted of a suspension (0.25 ml) at a concentration of 5×10^6 PMNL (polymorphonuclear leucocytes)/ml respectively monocytes/macrophages, 50 μl zymosan, and 0.45 ml medium containing 2×10^−6 M lucigenine. The reaction mixture was kept at 37° C. before chemoluminescence measurements were performed with a Luminometer (Luminoskan 1251, Labsystems) according to manufacturer's instructions (User's Manual 1995).

SMILES: O=[Se]([O-])[O-].[Na+].[Na+] [selenium, sodium selenite]
- concentrations that decrease macrophage activity: > 8 µg/mL
